Measured values: US9572850B2, “Use of cajeput and Pimenta racemosa extract for treating parasitic infestation of fish” (Mars, Incorporated, priority 2009, dated 2017)

How the values were obtained:
[1] = system: G. turnbulli; experiment: Trial 2: single parasite, single fish, low dose, 7 day treatment; efficacy of treatments; assay type: in vivo
Protocol: (§1) Efficacy of treatments in all trials was assessed using the following equation: Et=(L0−Lt)/L0 for Lt<L0, and ΔEt=0 for Lt>L0. Where • L0=parasite load at start of treatment • Lt=parasite load at end of treatment and • Et=efficacy of treatment at time t.
All data were analysed in Minitab vs. 15.

[2] = system: single guppies each infected with 2-200 G. turnbulli; experiment: Host mortality in Trial 2
Protocol: They were fed on a mixture of live food (Daphnia and Artemia spp.) and Aquarian fish flakes at least twice daily and were maintained at 25±1° C. with a 12 h dark:12 h light cycle.
On D1 (day 1) and D8 (day 8) the number of parasites and their location on the host were recorded by screening fish anaesthetised with 0.02% MS222 using a stereo-microscope and cold light illumination.
In a second trial, single guppies (n=115) each infected with 2-200 G. turnbulli were maintained as in Trial 1 and received treatments of either allyl disulphide, Pimafix®, Melafix® or a Pimafix®/Melafix® combination.

[3] = system: Gyrodactylus turnbulli infections on guppies; experiment: Allyl disulphide carefully applied: high dose 10 min exposure, followed by low dose 1 h exposure; assay type: in vivo; conditions: high dose 10 min exposure, followed by low dose 1 h exposure
[4] = system: G. turnbulli; conditions: 0.15 mg/l alone (daily water changes)
Protocol: as §1

Row | Structure (SMILES) | efficacy (in words) ([1]; Trial 2, single parasite, single fish, low dose, 7 day treatment) | efficacy (in words) ([1]; applied at a low dose, comparable to applications used in the aquarium trade) | increase of host mortality compared to the control [2] [%] | Host mortalities (%) Trial 2 ([2]; single guppies, 7 day treatment) [%] | efficacy (in words) [3] | efficacy at removing parasites (in words) [4]
1 | C=CCSSCC=C [Allyl disulphide, allyl disulphide] | not effective | not effective | 15 | 50 | effective only when carefully applied | 
2 | c1ccc([C@H]2CN3CCSC3=N2)cc1 [Levamisole, levamisole] |  |  |  |  |  | not effective at removing parasites
